According to US4732970A, “Antitumor amino acid and peptide derivatives of 1,4-bis(aminoalkyl and hydroxy-aminoalkyl)amino)-5,8-dihydroxyanthraquinones” (priority 1986, dated 1988):

Tested on: lymphocytic leukemia P388
Experiment: Lymphocytic Leukemia P388 Test
Format: in vivo, BDF1 mice
Details: for Median Survival: BDF1 mice; for T/C × 100 (%): ratio of survival time treated/control
Protocol: The animals used were BDF1 mice, all of one sex, weighing a minimum of 18 g and all within a 3 g weight range. There were 5 or 6 mice per test group. The tumor transplant was by intraperitoneal injection of 0.5 ml of dilute ascitic fluid containing 10^6 cells of lymphocytic leukemia P388. The test compounds were administered intraperitoneally on days 1, 5 and 9 (relative to tumor inocu-lation) at various doses. The animals were weighed and survivors recorded on a regular basis for 60 days. The median survival time and the ratio of survival time for treated (T)/control (C) animals were calculated.

[1] = dose 0.75 mg/kg intraperitoneally on days 1, 5 and 9
[2] = dose 1.5 mg/kg intraperitoneally on days 1, 5 and 9
[3] = dose 3 mg/kg intraperitoneally on days 1, 5 and 9

| Compound | Median Survival [1] [days] | T/C × 100 (%) [1] [%] | Median Survival [2] [days] | T/C × 100 (%) [2] [%] | Median Survival [3] [days] | T/C × 100 (%) [3] [%] |
| --- | --- | --- | --- | --- | --- | --- |
| N[C@@H](CC(=O)OCc1ccccc1)C(=O)NCCNc1ccc(NCCNC(=O)[C@@H](N)CC(=O)OCc2ccccc2)c2c1C(=O)c1c(O)ccc(O)c1C2=O.O=C(O)C(F)(F)F.O=C(O)C(F)(F)F (relative stereo) [Example 46, [S-(R*,R*)]-4,4'-[(9,10-Dihydro-5,8-dihydroxy-9,10-dioxo-1,4-anthracenediyl)bis(imino-2,1-ethanediylimino)]bis[3-amino-4-oxobutanoic acid]bis(phenylmethyl)ester, bis(trifluoroacetate)] | 21.0 | 191 | 25.5 | 232 | 26.0 | 236 |
| CC(C)(C)OC(=O)CC[C@H](NC(=O)OCc1ccccc1)C(=O)NCCNc1ccc(NCCNC(=O)[C@H](CCC(=O)OC(C)(C)C)NC(=O)OCc2ccccc2)c2c1C(=O)c1c(O)ccc(O)c1C2=O (relative stereo) [Example 47, [S-(R*,R*)]-5,5'-[(9,10-Dihydro-5,8-dihydroxy-9,10-dioxo-1,4-anthracenediyl)bis(imino-2,1-ethanediylimino)]bis[5-oxo-4-[[(phenylmethoxy)carbonyl]amino]pentanoic acid], bis(1,1-dimethylethyl)ester] | 15.0 | 136 | 17.0 | 155 | 16.5 | 150 |
| O=C(O)C(F)(F)F.O=C(O)C(F)(F)F.O=C(O)CC[C@H](NC(=O)OCc1ccccc1)C(=O)NCCNc1ccc(NCCNC(=O)[C@H](CCC(=O)O)NC(=O)OCc2ccccc2)c2c1C(=O)c1c(O)ccc(O)c1C2=O (relative stereo) [Example 48, [S-(R*,R*)]-5,5'-[(9,10-Dihydro-5,8-dihydroxy-9,10-dioxo-1,4-anthracenediyl)bis(imino-2,1-ethanediylimino)]bis[5-oxo-4-[[(phenylmethoxy)carbonyl]amino]pentanoic acid, bis(trifluoroacetate)] | 14.0 | 117 | 15.0 | 125 | 16.5 | 138 |
| Br.Br.NCC(=O)N[C@@H](Cc1ccccc1)C(=O)NCCNc1ccc(NCCNC(=O)[C@H](Cc2ccccc2)NC(=O)CN)c2c1C(=O)c1c(O)ccc(O)c1C2=O (relative stereo) [Example 54, [S-(R*,R*)]-N,N'-[(9,10-Dihydro-5,8-dihydroxy-9,10-dioxo-1,4-anthracenediyl)bis(imino-2,1-ethanediyl)]bis[glycyl-L-phenylalaninamide]dihydrobromide] | 18.5 | 185 | 19.0 | 195 | 19.0 | 190 |
| C[C@H](N)C(=O)NCCNc1ccc(NCCNC(=O)[C@H](C)N)c2c1C(=O)c1c(O)ccc(O)c1C2=O.Cl.Cl (stereo in doubt) [Example 16, [S-(R*,R*)]-N,N'-[(9,10-Dihydro-5,8-dihydroxy-9,10-dioxo-1,4-anthracenediyl)bis(imino-2,1-ethanediyl)]bis-[2-aminopropanamide], dihydrochloride] | 25.5 | 232 | 52.5 | 477 | 42.5 | 386 |
